Results reported in the supplement of paper PMC10307832.

Tests used:
Assay in all cases: relative viability (nuclei count vs DMSO), 5 days (fraction); higher = more cells survive
[1] = compound: CCn1c(-c2nonc2N)nc2cnc(Oc3cccc(NC(=O)c4ccc(OCCN5CCOCC5)cc4)c3)cc21 + Nc1nc2[nH]cc(CCc3ccc(C(=O)N[C@@H](CCC(=O)O)C(=O)O)cc3)c2c(=O)[nH]1 [Pemetrexed] (partner 0.2 µM)
Procedure, shortened: (§1)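 The day after seeding in 1536-well plates, lung cancer cell lines were treated by pin tool with a single drug, or with a fixed anchor-drug dose together with five library-drug doses (not always all listed) in √10 steps. After 5 days, a combined fix-and-stain solution (final 0.05% Triton X-100, 1% formaldehyde, 1 ug/ml Hoechst) was added. Nuclei counted on 4× images gave relative viability as treated counts over vehicle counts, reported as the median of duplicate plates.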

[2] = compound: CCn1c(-c2nonc2N)nc2cnc(Oc3cccc(NC(=O)c4ccc(OCCN5CCOCC5)cc4)c3)cc21 + O=C(c1cc(Cc2n[nH]c(=O)c3ccccc23)ccc1F)N1CCN(C(=O)C2CC2)CC1 [Olaparib] (partner 8 µM)
Procedure, shortened: as §1

[3] = compound: CCn1c(-c2nonc2N)nc2cnc(Oc3cccc(NC(=O)c4ccc(OCCN5CCOCC5)cc4)c3)cc21 + N=C(N)NC(=N)NCCc1ccccc1 [Phenformin] (partner 250 µM)
Procedure, shortened: as §1

[4] = compound: CCC1=CN=CN=C1N2CCN(CC2)CC3=NC4=C(N3)C=C(C=C4)C(F)(F)F + O=C(c1cc(Cc2n[nH]c(=O)c3ccccc23)ccc1F)N1CCN(C(=O)C2CC2)CC1 [Olaparib] (partner 8 µM)
Procedure, shortened: as §1

| Cell Line | relative viability ([1]; first compound 0.04 µM) | relative viability ([1]; first compound 0.1265 µM) | relative viability ([1]; first compound 0.4 µM) | relative viability ([1]; first compound 1.265 µM) | relative viability ([1]; first compound 4 µM) | relative viability ([2]; first compound 0.04 µM) | relative viability ([2]; first compound 0.1265 µM) | relative viability ([2]; first compound 0.4 µM) | relative viability ([2]; first compound 1.265 µM) | relative viability ([2]; first compound 4 µM) | relative viability ([3]; first compound 0.04 µM) | relative viability ([3]; first compound 0.1265 µM) | relative viability ([3]; first compound 0.4 µM) | relative viability ([3]; first compound 1.265 µM) | relative viability ([3]; first compound 4 µM) | relative viability ([4]; first compound 0.04 µM) | relative viability ([4]; first compound 0.1265 µM) | relative viability ([4]; first compound 0.4 µM) | relative viability ([4]; first compound 1.265 µM) | relative viability ([4]; first compound 4 µM) |
| --- | --- | --- | --- | --- | --- | --- | --- | --- | --- | --- | --- | --- | --- | --- | --- | --- | --- | --- | --- | --- |
| LU99A | 0.227 | 0.167 | 0.168 | 0.163 | 0.158 | 0.313 | 0.299 | 0.262 | 0.256 | 0.244 | 0.614 | 0.706 | 0.623 | 0.683 | 0.505 | 0.308 | 0.282 | 0.276 | 0.28 | 0.301 |
| NCI-H1437 | 0.324 | 0.317 | 0.297 | 0.216 | 0.201 | 0.696 | 0.624 | 0.591 | 0.485 | 0.49 | 0.321 | 0.312 | 0.239 | 0.295 | 0.288 | 0.597 | 0.595 | 0.575 | 0.544 | 0.505 |
| EKVX | 0.516 | 0.371 | 0.346 | 0.359 | 0.313 | 1.18 | 0.856 | 0.802 | 0.635 | 0.79 | 0.275 | 0.242 | 0.136 | 0.227 | 0.236 | 0.877 | 0.734 | 0.89 | 0.684 | 0.862 |
| NCI-H596 | 0.438 | 0.484 | 0.462 | 0.451 | 0.48 | 0.622 | 0.666 | 0.739 | 0.739 | 0.585 | 0.898 | 0.77 | 0.598 | 0.531 | 0.661 | 0.737 | 0.64 | 0.575 | 0.649 | 0.747 |
| LCLC-97TM1 | 0.228 | 0.196 | – | 0.192 | 0.18 | 0.518 | 0.381 | – | 0.387 | 0.423 | 0.485 | 0.431 | 0.23 | 0.463 | 0.361 | 0.425 | 0.418 | 0.335 | 0.329 | 0.278 |
| NCI-H2170 | 0.263 | 0.263 | 0.272 | 0.223 | 0.244 | 0.629 | 0.661 | 0.629 | 0.549 | 0.415 | 0.468 | 0.417 | 0.388 | 0.355 | 0.315 | 0.632 | 0.574 | 0.571 | 0.537 | 0.601 |
| NCI-H1793 | 0.542 | 0.754 | 0.69 | 0.512 | 0.502 | 0.824 | 0.994 | 0.756 | 0.52 | 0.363 | 0.459 | 0.464 | 0.253 | 0.212 | 0.168 | 0.736 | 0.754 | 0.697 | 0.564 | 0.784 |
| NCI-H322M | 0.714 | 0.716 | 0.617 | 0.47 | 0.559 | 1.14 | 1.01 | 0.935 | 0.661 | 0.702 | 1.12 | 0.982 | 0.632 | 0.557 | 0.579 | 0.792 | 0.811 | 0.725 | 0.672 | 0.85 |
| PC-3 [JPC-3] | 1.14 | 1.03 | 1.05 | 0.662 | 0.928 | 1.13 | 1.14 | 0.966 | 0.746 | 0.861 | 0.5 | 0.488 | 0.478 | 0.465 | 0.459 | – | 1.02 | 1.13 | 1.02 | 0.977 |
| EPLC-272H | 0.392 | 0.328 | 0.253 | 0.239 | 0.119 | 1.09 | 0.928 | 0.827 | 0.449 | 0.365 | 0.369 | 0.306 | 0.216 | 0.245 | 0.229 | 0.687 | 0.693 | 0.835 | 0.617 | 0.695 |
| A-427 | 0.876 | 0.708 | 0.529 | 0.228 | 0.318 | 0.704 | 0.685 | 0.601 | 0.198 | 0.264 | 0.471 | 0.377 | 0.227 | 0.167 | 0.114 | 0.683 | 0.72 | 0.636 | 0.698 | 0.595 |
